Results as given in patent US8236820B2, “Anti-inflammatory compounds and uses thereof” (priority 2007, dated 2012).

Experiments:
[1] = tested on: MDA-MB231; test: Cell viability (MTT) assay, 24-h IC50, MDA-MB231; format: cell-based, human; details: Homo sapiens, MDA-MB-231, 24 h, read-out: 24-h IC50
[2] = tested on: MDA-MB 231 human breast cancer cells; test: Annexin V and propidium iodide staining in MDA-MB231; format: cell-based; details: MDA-MB231, compound at its IC50, 24 h
Description: Annexin V and propidium iodide (PI) staining: Cells were seeded at a density of 1×10^5 cells/well and treated for 24 h with various concentrations of each compound or equivalent volumes of DMSO. Briefly, after incubation with the test compounds, cells were trypsinized and stained with Annexin V-FITC (Invitrogen) and PI (0.5 μg/ml). Following incubation at room temperature for 15 min in the dark, annexin V-FITC and PI fluorescence intensities were analyzed by FACScaliber (BD Bioscience). Annexin V (+)/PI (−) cells are in early apoptosis, annexin V (+)/PI (+) cells are in late apoptosis (secondary necrosis), and annexin V (−)/ PI (+) cells are necrotic cells.
As summarized in Table 2 below, in MDA-MB231 cells, all six compounds, each used at its IC50 concentration, a) inhibited cell proliferation between 6% and 50% compared to controls; b) induced both early and late apoptosis, as well as necrosis; and c) inhibited the G1 to S cell cycle phase transition. In this Table, the values for proliferation are the percentage of the corresponding control values. Those for apoptosis and necrosis refer to the percentage of cells in each category with respect to the entire cell population, and are to be compared to the control (vehicle only-treated) cells (uppermost row).

[3] = tested on: APC^Min/+ mice; test: APC Min/+ mice study of intestinal tumors; format: in vivo; details: 50 mg/kg/day gavage, 4 weeks
Text: APC^Min/+ mice study: Min mice have a truncating mutation in the Apc gene that predisposes them to the development of gastrointestinal tumors in the small intestine and colon (Lipkin M, Yang K, Edelmann W, et al. Preclinical mouse models for cancer chemoprevention studies. Ann N Y Acad Sci 1999; 889:14-9.). In many important ways, this model system represents a useful (and extensively utilized) experimental system that recapitulates the relevant steps of colon carcinogenesis.
Eleven week-old male C57BL/6J APC^Min/+ mice divided into […] groups of 10 mice/group were treated for 4 weeks via gavage administration as follows: group 1 was treated with vehicle (corn oil); and group 2 was treated with phospho-sulindac I 50 mg/kg/day.

[4] = tested on: SW480 colon cancer cells; test: Nude mice xenograft study; format: in vivo; details: 50 mg/kg/day gavage, 14 days
Description: Nude mice xenograft study: Female nude mice CByJ.Cg-Foxn1 (5-6 weeks-old) were inoculated subcutaneously in their lower right flank with 1.5×10^6 SW480 colon cancer cells in a volume of 100 μl (containing 50% matrigel in PBS). Seven days later, animals were randomized into two groups (8 mice/group): group 1 received vehicle (1% (w/v) carboxy methylcellulose); group 2 received 50 mg/kg/day phospho-sulindac I. All drugs were administered in a solution of 1% (w/v) carboxy methylcellulose by gavage once daily (phospho-sulindac I and sulindac concentrations are equimolar). Tumors were measured twice a week with a digital microcaliper, and tumor volume (TV) was calculated using the formula: TV=[L×W×(L+W/2)×0.56], where L=length and W=width of tumor. After 14 days of treatment, animals were sacrificed, and tumors were removed and weighed.

CCOP(=O)(OCC)OCCCCOC(=O)CC1=C(C)/C(=C/c2ccc([S+](C)[O-])cc2)c2ccc(F)cc21 (stereo not drawn) [Phospho-sulindac I]
IC50 [1]: 17 µM
Necrosis (%) ([2]; % of entire cell population (control 0.6)): 1.1%
Early apoptosis (%) ([2]; % of entire cell population (control 1.4)): 1.7%
Late apoptosis (%) ([2]; % of entire cell population (control 2.0)): 4.7%
signs of toxicity in Min mice [3]: without any overt signs of toxicity
decreased the number of tumors in the small intestine ([3]; vs vehicle, p<0.002): 57.2%
reduction of tumors in the colon ([3]; vs vehicle, p<0.02): 61.8%
number of colon tumors ([3]; vehicle 1.6±0.8): 0.6±0.5
number of intestinal tumors ([3]; vehicle 33.6±8.7): 19.4±12.0
tolerability in xenograft study [4]: no weight loss or other signs of toxicity were observed
mean tumor weight ([4]; mean±SEM, vehicle 0.246±0.041): 0.097±0.018
reduction in tumor weight ([4]; vs vehicle, p<0.05): 60%
